Measurements reported in US11331314B2, “Amine substituted triazole derivatives and uses thereof” (Bayer Pharma Aktiengesellschaft, priority 2017, dated 2022).

Tests used:
human V2 receptor = target: T1, human V2 receptor (Homo sapiens, UniProt P30518); assay: Cellular in vitro assay for determining vasopressin receptor activity, V2 receptor cell line (CRE-luciferase); format: cell-based; details: CHO cell line transfected with the human V2 receptor; agonist [Arg8]-vasopressin at EC50 concentration; read-out: IC50 hV2
T1 construct: expressed in transfected cells; host or cells: CHO K1 (ATCC) expressing firefly luciferase under a CRE-responsive promoter
T1 sequence (P30518 whole entry): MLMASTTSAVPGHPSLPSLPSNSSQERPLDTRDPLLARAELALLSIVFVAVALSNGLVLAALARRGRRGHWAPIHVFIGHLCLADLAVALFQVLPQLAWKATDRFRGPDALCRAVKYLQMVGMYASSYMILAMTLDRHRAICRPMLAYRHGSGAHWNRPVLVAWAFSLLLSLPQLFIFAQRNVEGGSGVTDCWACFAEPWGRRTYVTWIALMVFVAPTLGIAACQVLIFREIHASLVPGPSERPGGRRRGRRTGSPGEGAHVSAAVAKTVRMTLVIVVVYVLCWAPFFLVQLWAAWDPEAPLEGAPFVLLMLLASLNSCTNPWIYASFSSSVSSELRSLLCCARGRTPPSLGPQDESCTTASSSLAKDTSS

human V1a receptor = human V1a receptor (Homo sapiens, UniProt P37288); assay: Cellular in vitro assay for determining vasopressin receptor activity, V1a receptor cell line (photoprotein luminescence); format: cell-based; details: for IC50: CHO cell line transfected with the human V1a receptor, agonist [Arg8]-vasopressin at EC50 concentration, read-out: IC50 hV1a; for ratio IC50 hV2/hV1a: selectivity ratio of the cellular IC50 values
human V1a receptor, sequence (P37288 whole entry): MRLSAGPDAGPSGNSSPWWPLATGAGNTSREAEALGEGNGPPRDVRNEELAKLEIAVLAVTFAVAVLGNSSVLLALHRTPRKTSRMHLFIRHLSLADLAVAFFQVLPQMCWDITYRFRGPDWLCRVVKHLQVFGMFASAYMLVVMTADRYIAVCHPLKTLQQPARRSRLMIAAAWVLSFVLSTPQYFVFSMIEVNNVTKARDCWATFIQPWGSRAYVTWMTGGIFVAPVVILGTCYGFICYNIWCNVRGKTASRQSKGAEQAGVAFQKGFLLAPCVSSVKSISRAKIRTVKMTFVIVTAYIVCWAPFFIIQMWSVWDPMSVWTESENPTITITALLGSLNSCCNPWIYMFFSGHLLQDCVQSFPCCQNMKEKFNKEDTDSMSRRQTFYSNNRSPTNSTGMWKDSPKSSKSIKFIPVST
Outline: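 CHO K1 cells stably expressing human V1a receptor with aequorin photoprotein, loaded overnight with coelenterazine. Compounds preincubated 10 min at various concentrations, then challenged with [Arg^8]-vasopressin at EC50 concentration. Calcium-driven luminescence read immediately; IC50 values derived.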

| SMILES | IC50 (human V2 receptor) [nM] | IC50 (human V1a receptor) [nM] | ratio IC50 hV2/hV1a (human V1a receptor) |
| --- | --- | --- | --- |
| NC(=O)[C@@H]1CCN(c2nc(Cn3nc(-c4ccc(Cl)cc4)n(C[C@H](O)C(F)(F)F)c3=O)nn2-c2ccccc2Cl)C1 [Example 56, (3R)-1-[1-(2-Chlorophenyl)-3-({3-(4-chlorophenyl)-5-oxo-4-[(2S)-3,3,3-trifluoro-2-hydroxypropyl]-4,5-dihydro-1H-1,2,4-triazol-1-yl}methyl)-1H-1,2,4-triazol-5-yl]pyrrolidine-3-carboxamide] | 5.65 | 0.73 | 7.7 |
| NCC(O)CNc1nc(Cn2nc(-c3ccc(Cl)cc3)n(C[C@H](O)C(F)(F)F)c2=O)nn1-c1ccccc1Cl (mixture of isomers) [Example 11, 2-{[5-{[3-Amino-2-hydroxypropyl]amino}-1-(2-chlorophenyl)-1H-1,2,4-triazol-3-yl]methyl}-5-(4-chlorophenyl)-4-[(2S)-3,3,3-trifluoro-2-hydroxypropyl]-2,4-dihydro-3H-1,2,4-triazol-3-one] | 4.65 | 0.93 | 5.0 |
| O=C1NCCC1Nc1nc(Cn2nc(-c3ccc(Cl)cc3)n(C[C@H](O)C(F)(F)F)c2=O)nn1-c1ccccc1Cl (single isomer, unassigned) [Example 17] | 1.9 | 0.5 | 3.8 |
| O=c1n(Cc2nc(N3CC4(COC4)C3)n(-c3ccccc3Cl)n2)nc(-c2ccc(Cl)cc2)n1C[C@H](O)C(F)(F)F [Example 86, 5-(4-Chlorophenyl)-2-{[1-(2-chlorophenyl)-5-(2-oxa-6-azaspiro[3.3]hept-6-yl)-1H-1,2,4-triazol-3-yl]methyl}-4-[(2S)-3,3,3-trifluoro-2-hydroxypropyl]-2,4-dihydro-3H-1,2,4-triazol-3-one] | 6.66 | 0.98 | 6.8 |
| CC1(C)CN(c2nc(Cn3nc(-c4ccc(Cl)cc4)n(C[C@H](O)C(F)(F)F)c3=O)nn2-c2ccccc2Cl)CCN1 [Example 76, 5-(4-Chlorophenyl)-2-{[1-(2-chlorophenyl)-5-(3,3-dimethylpiperazin-1-yl)-1H-1,2,4-triazol-3-yl]methyl}-4-[(2S)-3,3,3-trifluoro-2-hydroxypropyl]-2,4-dihydro-3H-1,2,4-triazol-3-one] | 45 | 0.42 | 108.4 |
| CN(C)c1nc(Cn2nc(-c3ccc(Cl)cc3)n(C[C@H](O)C(F)(F)F)c2=O)nn1-c1cccc(F)c1 [Example 120, 5-(4-Chlorophenyl)-2-{[5-(dimethylamino)-1-(3-fluorophenyl)-1H-1,2,4-triazol-3-yl]methyl}-4-[(2S)-3,3,3-trifluoro-2-hydroxypropyl]-2,4-dihydro-3H-1,2,4-triazol-3-one] | 8.19 | 4.66 | 1.8 |
| O=C1CN(c2nc(Cn3nc(-c4ccc(Cl)cc4)n(C[C@H](O)C(F)(F)F)c3=O)nn2CCC(F)(F)F)CCN1 [Example 112, 4-[3-({3-(4-Chlorophenyl)-5-oxo-4-[(2S)-3,3,3-trifluoro-2-hydroxypropyl]-4,5-dihydro-1H-1,2,4-triazol-1-yl}methyl)-1-(3,3,3-trifluoropropyl)-1H-1,2,4-triazol-5-yl]piperazin-2-one] | 810 | 114 | 7.1 |
| NC(CNc1nc(Cn2nc(-c3ccc(Cl)cc3)n(C[C@H](O)C(F)(F)F)c2=O)nn1-c1ccccc1Cl)C(F)(F)F (mixture of isomers) [Example 6, 2-{[5-{[2-Amino-3,3,3-trifluoropropyl]amino}-1-(2-chlorophenyl)-1H-1,2,4-triazol-3-yl]methyl}-5-(4-chlorophenyl)-4-[(2S)-3,3,3-trifluoro-2-hydroxypropyl]-2,4-dihydro-3H-1,2,4-triazol-3-one] | 3.45 | 0.39 | 8.9 |
| O=c1n(Cc2nc(N3CCOC(C(F)(F)F)C3)n(CCC(F)(F)F)n2)nc(-c2ccc(Cl)cc2)n1C[C@H](O)C(F)(F)F (single isomer, unassigned) [Example 105] | 180 | 22 | 8.2 |
| O=C(CNc1nc(Cn2nc(-c3ccc(Cl)cc3)n(C[C@H](O)C(F)(F)F)c2=O)nn1-c1ccccc1Cl)NCC(F)(F)F [Example 40, N^2-[1-(2-Chlorophenyl)-3-({3-(4-chlorophenyl)-5-oxo-4-[(2S)-3,3,3-trifluoro-2-hydroxypropyl]-4,5-dihydro-1H-1,2,4-triazol-1-yl}methyl)-1H-1,2,4-triazol-5-yl]-N-(2,2,2-trifluoroethyl)glycinamide] | 7.2 | 0.72 | 10.1 |
| O=c1n(Cc2nc(NCC3(O)CCC3)n(-c3ccccc3Cl)n2)nc(-c2ccc(Cl)cc2)n1C[C@H](O)C(F)(F)F [Example 52, 5-(4-Chlorophenyl)-2-{[1-(2-chlorophenyl)-5-{[(1-hydroxycyclobutyl)methyl]amino}-1H-1,2,4-triazol-3-yl]methyl}-4-[(2S)-3,3,3-trifluoro-2-hydroxypropyl]-2,4-dihydro-3H-1,2,4-triazol-3-one] | 0.83 | 0.65 | 1.3 |
| O=c1n(Cc2nc(N3CCNC(C(F)(F)F)C3)n(-c3ccccc3Cl)n2)nc(-c2ccc(Cl)cc2)n1C[C@H](O)C(F)(F)F (single isomer, unassigned) [Example 67] | 22 | 1.16 | 19.0 |
| CC(=O)N1CCN(c2nc(Cn3nc(-c4ccc(Cl)cc4)n(C[C@H](O)C(F)(F)F)c3=O)nn2-c2ccccc2Cl)CC1 [Example 75, 2-{[5-(4-Acetylpiperazin-1-yl)-1-(2-chlorophenyl)-1H-1,2,4-triazol-3-yl]methyl}-5-(4-chlorophenyl)-4-[(2S)-3,3,3-trifluoro-2-hydroxypropyl]-2,4-dihydro-3H-1,2,4-triazol-3-one] | 8.9 | 0.81 | 11.0 |
| O=c1n(Cc2nc(N3CCNCC3)n(-c3ccccc3Cl)n2)nc(-c2ccc(Cl)cc2)n1C[C@H](O)C(F)(F)F [Example 72, 5-(4-Chlorophenyl)-2-{[1-(2-chlorophenyl)-5-(piperazin-1-yl)-1H-1,2,4-triazol-3-yl]methyl}-4-[(2S)-3,3,3-trifluoro-2-hydroxypropyl]-2,4-dihydro-3H-1,2,4-triazol-3-one] | 17.5 | 0.58 | 30.2 |
| C[C@H](O)CNc1nc(Cn2nc(-c3ccc(Cl)cc3)n(C[C@H](O)C(F)(F)F)c2=O)nn1-c1ccccc1Cl [Example 50, 5-(4-Chlorophenyl)-2-{[1-(2-chlorophenyl)-5-{[(2S)-2-hydroxypropyl]amino}-1H-1,2,4-triazol-3-yl]methyl}-4-[(2S)-3,3,3-trifluoro-2-hydroxypropyl]-2,4-dihydro-3H-1,2,4-triazol-3-one] | 2.08 | 0.47 | 4.5 |
| CNc1nc(Cn2nc(-c3ccc(Cl)cc3)n(C[C@H](O)C(F)(F)F)c2=O)nn1-c1cccc(Cl)c1 [Example 118, 5-(4-Chlorophenyl)-2-{[1-(3-chlorophenyl)-5-(methylamino)-1H-1,2,4-triazol-3-yl]methyl}-4-[(2S)-3,3,3-trifluoro-2-hydroxypropyl]-2,4-dihydro-3H-1,2,4-triazol-3-one] | 1.04 | 16.4 | 0.1 |
| O=c1n(Cc2nc(N3CCCC3)n(-c3cccc(Cl)c3)n2)nc(-c2ccc(Cl)cc2)n1C[C@H](O)C(F)(F)F [Example 117, 5-(4-Chlorophenyl)-2-{[1-(3-chlorophenyl)-5-(pyrrolidin-1-yl)-1H-1,2,4-triazol-3-yl]methyl}-4-[(2S)-3,3,3-trifluoro-2-hydroxypropyl]-2,4-dihydro-3H-1,2,4-triazol-3-one] | 19.2 | 66.5 | 0.3 |
| O=c1n(Cc2nc(N3CCS(=O)(=O)CC3)n(-c3ccccc3Cl)n2)nc(-c2ccc(Cl)cc2)n1C[C@H](O)C(F)(F)F [Example 55, 5-(4-Chlorophenyl)-2-{[1-(2-chlorophenyl)-5-(1,1-dioxidothiomorpholin-4-yl)-1H-1,2,4-triazol-3-yl]methyl}-4-[(2S)-3,3,3-trifluoro-2-hydroxypropyl]-2,4-dihydro-3H-1,2,4-triazol-3-one] | 26 | 0.39 | 67.1 |
| O=c1n(Cc2nc(N3CCOC(C(F)(F)F)C3)n(-c3ccccc3Cl)n2)nc(-c2ccc(Cl)cc2)n1C[C@H](O)C(F)(F)F (mixture of isomers) [Example 77, 5-(4-Chlorophenyl)-2-({1-(2-chlorophenyl)-5-[2-(trifluoromethyl)morpholin-4-yl]-1H-1,2,4-triazol-3-yl}methyl)-4-[(2S)-3,3,3-trifluoro-2-hydroxypropyl]-2,4-dihydro-3H-1,2,4-triazol-3-one] | 39 | 1.5 | 26.0 |
| COC1CCN(c2nc(Cn3nc(-c4ccc(Cl)cc4)n(C[C@H](O)C(F)(F)F)c3=O)nn2-c2ccccc2Cl)C1 (mixture of isomers) [Example 42, 5-(4-Chlorophenyl)-2-({1-(2-chlorophenyl)-5-[3-methoxypyrrolidin-1-yl]-1H-1,2,4-triazol-3-yl}methyl)-4-[(2S)-3,3,3-trifluoro-2-hydroxypropyl]-2,4-dihydro-3H-1,2,4-triazol-3-one] | 1.9 | 0.48 | 4.0 |
| CC(C)(N)CNc1nc(Cn2nc(-c3ccc(Cl)cc3)n(C[C@H](O)C(F)(F)F)c2=O)nn1CCC(F)(F)F [Example 111, 2-({5-[(2-Amino-2-methylpropyl)amino]-1-(3,3,3-trifluoropropyl)-1H-1,2,4-triazol-3-yl}methyl)-5-(4-chlorophenyl)-4-[(2S)-3,3,3-trifluoro-2-hydroxypropyl]-2,4-dihydro-3H-1,2,4-triazol-3-one] | 2750 | 18.5 | 148.7 |
